Assay [1] has as its target human glucagon receptor (GCGR) (Homo sapiens (Human), UniProt P47871). Nature of the assay: Inhibition of 125I-glucagon binding to membranes from HEK293 cells expressing the human glucagon receptor. Summed up:
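Filtration binding assay on membranes from HEK293 cells stably expressing full-length human GCGR, 6 μg protein/well, with 0.3 nM ¹²⁵I-glucagon plus compound, 2 h at room temperature. Buffer: 50 mM HEPES pH 7.4, 5 mM MgCl2, 1 mM CaCl2, 0.2% BSA. IC50 by non-linear regression, converted to Ki.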

The target of the next assay is human GCGR (Homo sapiens (Human), UniProt P47871). Kind of assay: Cellular functional assay, cAMP readout (glucagon-stimulated cAMP in HEK293 cells expressing human GCGR). Particulars: hGluc-1 HEK cells. Format: cell-based. Summed up: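 HEK293 cells stably transfected with full-length human GCGR were exposed to compound for 30 min before a 5-min challenge with […] (final) glucagon. Readout was TR-FRET (LANCE) cAMP versus standard curve; IC50s fitted by non-linear regression and converted to Ki values.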
Chain of human GCGR (P47871 26-477): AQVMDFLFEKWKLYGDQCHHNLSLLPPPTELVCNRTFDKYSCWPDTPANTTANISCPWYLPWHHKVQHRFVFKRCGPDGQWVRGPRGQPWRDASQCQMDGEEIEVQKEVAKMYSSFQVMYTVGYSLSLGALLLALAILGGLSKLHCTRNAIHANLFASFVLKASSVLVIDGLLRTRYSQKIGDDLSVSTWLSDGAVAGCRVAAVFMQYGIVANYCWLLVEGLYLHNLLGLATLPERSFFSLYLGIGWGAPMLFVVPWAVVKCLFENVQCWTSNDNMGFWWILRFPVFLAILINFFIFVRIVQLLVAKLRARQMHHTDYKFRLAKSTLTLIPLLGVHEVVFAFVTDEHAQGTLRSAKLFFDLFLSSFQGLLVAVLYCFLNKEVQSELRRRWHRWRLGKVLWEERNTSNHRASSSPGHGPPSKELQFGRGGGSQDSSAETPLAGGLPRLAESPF

The mark [2] stands for this setting: membranes of hGluc-1 HEK cells, 125I-glucagon 0.3 nM, 2 hours room temperature, IC50 converted to Ki, average if tested more than once.
Where [3] appears, read: LANCE TR-FRET, IC50 converted to Ki, average if tested more than once.
The mark [4] stands for this setting: meta-substituted comparative compounds (Table 3), membranes of hGluc-1 HEK cells, 125I-glucagon 0.3 nM.
Setting [5] is: meta-substituted comparative compounds (Table 3).

The structures appear in SMILES notation. Read-outs that look alike come from different tables or passages of the source. Bounds are passed on as bounds.

This is an account of results in patent US8748624B2, “Picolinamido-propanoic acid derivatives useful as glucagon receptor antagonists” (Janssen Pharmaceutica NV, priority 2011, dated 2014).

Broadly, the Ki is the equilibrium dissociation constant of an inhibitor or competing ligand from its target.

Chain of human glucagon receptor (GCGR) (P47871 26-477): as above

On to `O=C(O)CCNC(=O)c1ccc(-c2cc(C(F)(F)F)c(Cl)cc2CNc2ccc(-c3ccc(Cl)cc3)c(Cl)c2)cn1` [Compound 78, 3-(5-(4-chloro-2-(((2,4′-dichloro-[1,1′-biphenyl]-4-yl)amino)methyl)-5-(trifluoromethyl)phenyl)picolinamido)propanoic acid], for which the Ki in assay [1] (setting [2]) amounted to 24 nM; on human GCGR (setting [3]), 25 nM.
For the molecule `O=C(O)CCNC(=O)c1ccc(-c2cc(Cl)cc(CNc3ccc(-c4ccc(Cl)cc4)cc3)c2)cn1` [Compound M3, 3-(5-(3-chloro-5-(((4′-chloro-[1,1′-biphenyl]-4-yl)amino)methyl)phenyl)picolinamido)propanoic acid, reference compound], the Ki was above 1350 nM in assay [1] (setting [4]) and above 10400 nM on human GCGR (setting [5]).
For `COc1ccc(-c2ccc(C(=O)NCCC(=O)O)nc2)c(CNc2ccc(-c3ccc(Cl)cc3Cl)cc2)c1` [Compound 60, 3-(5-(2-(((2′,4′-dichloro-[1,1′-biphenyl]-4-yl)amino)methyl)-4-methoxyphenyl)picolinamido)propanoic acid], the Ki in assay [1] (setting [2]) came to 194 nM; on human GCGR (setting [3]), 1370 nM.
Regarding `O=C(O)CCNC(=O)c1ccc(-c2cc(C(F)(F)F)c(Cl)cc2CNc2ccc(-c3ccc(Cl)cc3Cl)cc2)cn1` [Compound 82, 3-(5-(4-chloro-2-(((2′,4′-dichloro-[1,1′-biphenyl]-4-yl)amino)methyl)-5-(trifluoromethyl)phenyl)picolinamido)propanoic acid], the figures for the Ki (in assay [1] (setting [2]); at human GCGR (setting [3])) were 33.8 nM and 34.6 nM, respectively.
For `O=C(O)CCNC(=O)c1ccc(-c2cc(F)c(F)cc2CNc2ccc(-c3ccc(Cl)cc3F)c(Cl)c2)cn1` [Compound 104, 3-(5-(2-(((2,4′-dichloro-2′-fluoro-[1,1′-biphenyl]-4-yl)amino)methyl)-4,5-difluorophenyl)picolinamido)propanoic acid] the same measures were 25.4 nM and 84.4 nM.
For `O=C(O)CCNC(=O)c1ccc(-c2cc(Cl)ccc2C(=O)Nc2ccc(-c3ccc(Cl)cc3Cl)cc2)cn1` [Compound 19, 3-(5-(5-chloro-2-((2′,4′-dichloro-[1,1′-biphenyl]-4-yl)carbamoyl)phenyl)picolinamido)propanoic acid] the same measures were 39.6 nM and 45.8 nM.
With `O=C(O)CCNC(=O)c1ccc(-c2cc(Cl)cc(CNc3ccc(-c4ccc(F)cc4)cc3)c2)cn1` [Compound M1, 3-(5-(3-chloro-5-(((4′-fluoro-[1,1′-biphenyl]-4-yl)amino)methyl)phenyl)picolinamido)propanoic acid, reference compound], the values for the Ki (in assay [1] (setting [4]); at human GCGR (setting [5])) were above 2700 nM and above 10400 nM, respectively.
On to `O=C(O)CCNC(=O)c1ccc(-c2cc(C3=CCCCC3)ccc2CNc2ccc(-c3ccc(Cl)cc3Cl)cc2)cn1` [Compound 176, 3-(5-(4-(((2′,4′-dichloro-[1,1′-biphenyl]-4-yl)amino)methyl)-2′,3′,4′,5′-tetrahydro-[1,1′-biphenyl]-3-yl)picolinamido)propanoic acid], for which the Ki in assay [1] (setting [2]) came out at 40 nM; on human GCGR (setting [3]) it was 160 nM.
The like results for `Cc1cccc(CNc2ccc(-c3ccc(Cl)cc3)cc2)c1-c1ccc(C(=O)NCCC(=O)O)nc1` [Compound 69, 3-(5-(2-(((4′-chloro-[1,1′-biphenyl]-4-yl)amino)methyl)-6-methylphenyl)picolinamido)propanoic acid] were, in that order, 85.2 nM and 500 nM.
The like results for `O=C(O)CCNC(=O)c1ccc(-c2cc(C(F)(F)F)ccc2CNc2ccc(-c3ccc(C(F)(F)F)cc3Cl)cc2)cn1` [Compound 24, 3-(5-(2-(((2′-chloro-4′-(trifluoromethyl)-[1,1′-biphenyl]-4-yl)amino)methyl)-5-(trifluoromethyl)phenyl)picolinamido)propanoic acid] were, in that order, 28.3 nM and 32.4 nM.
For `O=C(O)CCNC(=O)c1ccc(-c2cc(F)c(F)cc2CNc2ccc(-c3ccc(Cl)cc3Cl)c(Cl)c2)cn1` [Compound 108, 3-(5-(4,5-difluoro-2-(((2,2′,4′-trichloro-[1,1′-biphenyl]-4-yl)amino)methyl)phenyl)picolinamido)propanoic acid] the same measures were 23.9 nM and 84.9 nM.
On to `O=C(O)CCNC(=O)c1ccc(-c2cc(Cl)ccc2CNc2ccc(-c3cccc(C(F)(F)F)c3)cc2)cn1` [Compound 130, 3-(5-(5-chloro-2-(((3′-(trifluoromethyl)-[1,1′-biphenyl]-4-yl)amino)methyl)phenyl)picolinamido)propanoic acid], for which the results for the Ki (in assay [1] (setting [2]); on human GCGR (setting [3])) were 62.6 nM and 390 nM, respectively.
With `O=C(O)CCNC(=O)c1ccc(-c2cc(Cl)ccc2C(=O)Nc2ccc(-c3ccc(F)cc3)cc2)cn1` [Compound 20, 3-(5-(5-chloro-2-((4′-fluoro-[1,1′-biphenyl]-4-yl)carbamoyl)phenyl)picolinamido)propanoic acid], the results for the Ki (in assay [1] (setting [2]); on human GCGR (setting [3])) were 61.4 nM and 158 nM, respectively.
`O=C(O)CCNC(=O)c1ccc(-c2cc(Cl)ccc2CNc2ccc(-c3ccc(Cl)cc3Cl)cc2F)cn1` [Compound 11, 3-(5-(5-chloro-2-(((2′,4′-dichloro-3-fluoro-[1,1′-biphenyl]-4-yl)amino)methyl)phenyl)picolinamido)propanoic acid]: the Ki in assay [1] (setting [2]) is 41.2 nM; at human GCGR (setting [3]), 265 nM.
Take `O=C(O)CCNC(=O)c1ccc(-c2cc(Cl)ccc2CNc2ccc(-c3ccc(F)cc3Cl)c(Cl)c2)cn1` [Compound 138, 3-(5-(5-chloro-2-(((2,2′-dichloro-4′-fluoro-[1,1′-biphenyl]-4-yl)amino)methyl)phenyl)picolinamido)propanoic acid]: the Ki in assay [1] was 22.9 nM; at human GCGR (setting [3]) it was 121 nM.
`O=C(O)CCNC(=O)c1ccc(-c2cc(Cl)ccc2CNc2ccc(-c3ccc(F)cc3C(F)(F)F)c(Cl)c2)cn1` [Compound 142, 3-(5-(5-chloro-2-(((2-chloro-4′-fluoro-2′-(trifluoromethyl)-[1,1′-biphenyl]-4-yl)amino)methyl)phenyl)picolinamido)propanoic acid]: the Ki in assay [1] (setting [2]) was determined as 31.3 nM; at human GCGR (setting [3]) it was 225 nM.
For the molecule `O=C(O)CCNC(=O)c1ccc(-c2cc(Cl)ccc2CNc2ccc(-c3ccc(Cl)c(Cl)c3)cc2)cn1` [Compound 58, 3-(5-(5-chloro-2-(((3′,4′-dichloro-[1,1′-biphenyl]-4-yl)amino)methyl)phenyl)picolinamido)propanoic acid], the Ki was 47.3 nM in assay [1] (setting [2]) and 58.4 nM on human GCGR (setting [3]).
Take `O=C(O)CCNC(=O)c1ccc(-c2cc(C(F)(F)F)cc(Cl)c2CNc2ccc(-c3ccc(Cl)cc3)c(Cl)c2)cn1` [Compound 74, 3-(5-(3-chloro-2-(((2,4′-dichloro-[1,1′-biphenyl]-4-yl)amino)methyl)-5-(trifluoromethyl)phenyl)picolinamido)propanoic acid]: the Ki in assay [1] (setting [2]) came out at 14.9 nM; at human GCGR (setting [3]), 7.1 nM.
For the molecule `O=C(O)CCNC(=O)c1ccc(-c2cc(Cl)ccc2CNc2ccc(-c3ccc(F)c(F)c3)cc2)cn1` [Compound 136, 3-(5-(5-chloro-2-(((3′,4′-difluoro-[1,1′-biphenyl]-4-yl)amino)methyl)phenyl)picolinamido)propanoic acid], the Ki stood at 28.6 nM in assay [1] (setting [2]) and 253 nM at human GCGR (setting [3]).
As for `O=C(O)CCNC(=O)c1ccc(-c2cc(F)c(F)cc2CNc2ccc(-c3ccc(Cl)c(C(F)(F)F)c3)c(Cl)c2)cn1` [Compound 106, 3-(5-(2-(((2,4′-dichloro-3′-(trifluoromethyl)-[1,1′-biphenyl]-4-yl)amino)methyl)-4,5-difluorophenyl)picolinamido)propanoic acid], the inhibition constant (Ki) in assay [1] (setting [2]) came to 26.1 nM; at human GCGR (setting [3]) it was 320 nM.
In the case of `O=C(O)CCNC(=O)c1ccc(-c2ccc(Cl)cc2CNc2ccc(-c3ccc(Cl)cc3Cl)cc2)cn1` [Compound 5, 3-(5-(4-chloro-2-(((2′,4′-dichloro-[1,1′-biphenyl]-4-yl)amino)methyl)phenyl)picolinamido)propanoic acid], the Ki in assay [1] (setting [2]) is 67.1 nM; at human GCGR (setting [3]), 181 nM.
As for `O=C(O)CCNC(=O)c1ccc(-c2cc(Cl)ccc2CNc2ccc(-c3ccccc3OC(F)(F)F)cc2)cn1` [Compound 132, 3-(5-(5-chloro-2-(((2′-(trifluoromethoxy)-[1,1′-biphenyl]-4-yl)amino)methyl)phenyl)picolinamido)propanoic acid], the Ki in assay [1] (setting [2]) amounted to 123 nM; at human GCGR (setting [3]), 1930 nM.
Consider `Cc1cc(Cl)ccc1-c1ccc(NCc2ccc(C(F)(F)F)cc2-c2ccc(C(=O)NCCC(=O)O)nc2)cc1Cl` [Compound 34, 3-(5-(2-(((2,4′-dichloro-2′-methyl-[1,1′-biphenyl]-4-yl)amino)methyl)-5-(trifluoromethyl)phenyl)picolinamido)propanoic acid], for which the inhibition constant (Ki) stood at 23.8 nM in assay [1] (setting [2]) and 17.1 nM on human GCGR (setting [3]).
Take `O=C(O)CCNC(=O)c1ccc(-c2cc(Cl)ccc2CNc2ccc(-c3ccc(OC(F)(F)F)cc3)c(Cl)c2)cn1` [Compound 140, 3-(5-(5-chloro-2-(((2-chloro-4′-(trifluoromethoxy)-[1,1′-biphenyl]-4-yl)amino)methyl)phenyl)picolinamido)propanoic acid]: the Ki in assay [1] (setting [2]) stood at 21.5 nM; at human GCGR (setting [3]), 84.3 nM.
`N#Cc1cc(NCc2cc(F)c(F)cc2-c2ccc(C(=O)NCCC(=O)O)nc2)ccc1-c1ccc(Cl)cc1Cl` [Compound 114, 3-(5-(2-(((2′,4′-dichloro-2-cyano-[1,1′-biphenyl]-4-yl)amino)methyl)-4,5-difluorophenyl)picolinamido)propanoic acid]: the Ki in assay [1] (setting [2]) came out at 40.4 nM; on human GCGR (setting [3]), 73.5 nM.
